Experimental data: patent US10660877B2 (BRISTOL-MYERS SQUIBB COMPANY, priority 2016, dated 2020)
Read-outs that look alike come from different tables or passages of the source.

Key:
human TLR9 = human TLR9 (Homo sapiens (Human), UniProt Q9NR96); test: TLR9 inhibition reporter assay (HEK-Blue cells, SEAP reporter, ODN2006 stimulation);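 note: compounds tested over 0.05 nM to 50 µM, 22 h incubation, inhibition taken as SEAP signal drop from agonist plus DMSO wells toward a known inhibitor control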
human TLR7 = human TLR7 (Homo sapiens (Human), UniProt Q9NYK1); test: TLR7 inhibition reporter assay (HEK-Blue cells, SEAP reporter, gardiquimod stimulation); type: cell-based
human TLR8 = human TLR8 (Homo sapiens (Human), UniProt Q9NR97); test: TLR8 inhibition reporter assay (HEK-Blue cells, SEAP reporter, R848 stimulation);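 note: compounds tested from 0.05 nM to 50 µM, 22 h at 37 °C, SEAP measured with HEK-Blue Detection, inhibition relative to agonist plus DMSO versus a known inhibitor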
[1] = read-out: TLR9 IC50, HEK-Blue cells overexpressing human TLR9, ODN2006 5 nM
[2] = HEK-Blue cells overexpressing human TLR7, gardiquimod 7.5 μM
[3] = read-out: TLR8 IC50, HEK-Blue cells overexpressing human TLR8, R848 15.9 μM
[4] = TLR9 IC50, HEK-Blue cells overexpressing human TLR9, ODN2006 5 nM
[5] = TLR8 IC50, HEK-Blue cells overexpressing human TLR8, R848 15.9 μM
[6] = HEK-Blue cells, gardiquimod 7.5 μM
[7] = read-out: TLR8 IC50, HEK-Blue cells, R848 15.9 μM
[8] = read-out: TLR9 IC50, HEK-Blue cells, ODN2006 5 nM

human TLR8, sequence (Q9NR97 27-1041): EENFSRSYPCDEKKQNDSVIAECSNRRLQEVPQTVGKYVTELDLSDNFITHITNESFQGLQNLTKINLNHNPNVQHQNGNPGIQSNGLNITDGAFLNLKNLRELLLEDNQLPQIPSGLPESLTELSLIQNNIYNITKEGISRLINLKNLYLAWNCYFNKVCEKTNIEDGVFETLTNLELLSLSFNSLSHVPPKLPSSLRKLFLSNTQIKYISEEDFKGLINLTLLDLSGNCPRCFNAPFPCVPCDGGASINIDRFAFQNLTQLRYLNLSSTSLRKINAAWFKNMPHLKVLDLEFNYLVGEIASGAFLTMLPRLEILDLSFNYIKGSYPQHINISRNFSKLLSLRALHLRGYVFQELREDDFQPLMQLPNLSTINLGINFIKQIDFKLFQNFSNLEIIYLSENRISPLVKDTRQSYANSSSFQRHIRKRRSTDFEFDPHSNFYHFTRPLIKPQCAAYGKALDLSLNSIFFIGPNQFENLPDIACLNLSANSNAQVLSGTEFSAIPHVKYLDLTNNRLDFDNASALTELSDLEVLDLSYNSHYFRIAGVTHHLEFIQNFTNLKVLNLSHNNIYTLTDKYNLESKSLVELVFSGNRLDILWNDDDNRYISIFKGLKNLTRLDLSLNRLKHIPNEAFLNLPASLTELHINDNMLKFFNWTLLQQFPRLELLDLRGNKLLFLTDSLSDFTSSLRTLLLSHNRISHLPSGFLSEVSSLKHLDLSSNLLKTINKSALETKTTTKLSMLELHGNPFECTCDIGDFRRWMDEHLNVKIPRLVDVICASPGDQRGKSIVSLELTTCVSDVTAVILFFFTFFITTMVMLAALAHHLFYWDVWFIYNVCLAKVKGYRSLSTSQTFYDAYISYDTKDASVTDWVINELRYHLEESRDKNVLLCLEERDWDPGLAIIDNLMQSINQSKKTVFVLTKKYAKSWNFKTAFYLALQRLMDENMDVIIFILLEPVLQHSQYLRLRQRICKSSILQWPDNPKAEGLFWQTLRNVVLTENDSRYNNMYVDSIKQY
human TLR9, sequence (Q9NR96 26-1032): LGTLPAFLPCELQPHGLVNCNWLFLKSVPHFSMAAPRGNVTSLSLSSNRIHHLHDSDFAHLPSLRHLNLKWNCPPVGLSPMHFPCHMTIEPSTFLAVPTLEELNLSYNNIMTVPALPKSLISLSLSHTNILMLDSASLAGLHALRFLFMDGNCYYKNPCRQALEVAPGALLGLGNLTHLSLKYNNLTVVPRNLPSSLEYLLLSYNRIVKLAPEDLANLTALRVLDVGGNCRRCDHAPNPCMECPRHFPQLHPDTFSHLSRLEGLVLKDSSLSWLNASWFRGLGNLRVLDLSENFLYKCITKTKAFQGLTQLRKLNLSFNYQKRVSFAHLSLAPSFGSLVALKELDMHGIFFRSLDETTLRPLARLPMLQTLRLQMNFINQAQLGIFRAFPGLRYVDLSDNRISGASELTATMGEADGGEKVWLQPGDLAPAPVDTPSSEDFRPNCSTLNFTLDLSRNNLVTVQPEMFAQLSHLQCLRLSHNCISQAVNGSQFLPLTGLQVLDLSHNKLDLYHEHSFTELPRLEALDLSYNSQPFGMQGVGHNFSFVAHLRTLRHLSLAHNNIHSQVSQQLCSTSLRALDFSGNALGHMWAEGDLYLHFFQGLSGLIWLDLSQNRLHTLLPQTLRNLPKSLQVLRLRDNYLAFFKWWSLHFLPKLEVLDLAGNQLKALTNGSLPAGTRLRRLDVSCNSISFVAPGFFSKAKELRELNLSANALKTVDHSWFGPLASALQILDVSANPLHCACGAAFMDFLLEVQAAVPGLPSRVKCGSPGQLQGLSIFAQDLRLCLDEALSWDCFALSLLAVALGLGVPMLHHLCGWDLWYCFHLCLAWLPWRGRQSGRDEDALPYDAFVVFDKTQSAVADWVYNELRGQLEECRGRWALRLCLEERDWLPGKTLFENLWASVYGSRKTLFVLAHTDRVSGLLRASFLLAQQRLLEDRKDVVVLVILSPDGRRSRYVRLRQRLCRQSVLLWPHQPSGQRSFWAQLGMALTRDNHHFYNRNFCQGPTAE
human TLR7, sequence (Q9NYK1 27-1049): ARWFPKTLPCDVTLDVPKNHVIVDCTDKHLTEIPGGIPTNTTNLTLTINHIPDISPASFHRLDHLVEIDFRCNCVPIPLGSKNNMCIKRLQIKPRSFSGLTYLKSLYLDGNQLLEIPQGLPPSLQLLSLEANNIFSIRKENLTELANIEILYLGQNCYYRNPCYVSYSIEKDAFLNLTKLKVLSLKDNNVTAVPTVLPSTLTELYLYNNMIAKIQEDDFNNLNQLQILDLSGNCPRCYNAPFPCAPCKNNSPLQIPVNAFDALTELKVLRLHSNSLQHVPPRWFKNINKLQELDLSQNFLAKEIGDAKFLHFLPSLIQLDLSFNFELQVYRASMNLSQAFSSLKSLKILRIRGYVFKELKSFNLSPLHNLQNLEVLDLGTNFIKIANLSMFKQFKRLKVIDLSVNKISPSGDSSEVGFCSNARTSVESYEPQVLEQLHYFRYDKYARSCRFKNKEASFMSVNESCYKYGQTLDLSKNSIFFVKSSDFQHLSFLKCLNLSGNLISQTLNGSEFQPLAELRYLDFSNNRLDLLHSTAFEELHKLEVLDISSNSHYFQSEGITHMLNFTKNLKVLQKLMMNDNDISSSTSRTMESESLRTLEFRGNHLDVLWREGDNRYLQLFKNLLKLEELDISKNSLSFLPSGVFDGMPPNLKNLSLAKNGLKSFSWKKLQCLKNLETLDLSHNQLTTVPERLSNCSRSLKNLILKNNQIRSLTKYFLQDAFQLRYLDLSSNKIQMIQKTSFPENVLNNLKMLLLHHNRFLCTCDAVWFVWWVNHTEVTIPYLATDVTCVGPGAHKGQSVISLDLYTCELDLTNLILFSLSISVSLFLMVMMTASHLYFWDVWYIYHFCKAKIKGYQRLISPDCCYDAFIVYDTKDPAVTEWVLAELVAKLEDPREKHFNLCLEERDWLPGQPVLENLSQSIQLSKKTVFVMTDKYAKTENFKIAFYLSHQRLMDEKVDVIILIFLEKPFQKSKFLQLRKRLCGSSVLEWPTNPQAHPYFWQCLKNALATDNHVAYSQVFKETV

Compound | IC50 (human TLR9; [1]) | IC50 (human TLR7; [2]) | IC50 (human TLR8; [3]) | IC50 (human TLR8; [5]) | other results
Cc1cc(-c2[nH]c3ccc(C4CCN(C(=O)Cc5csc(C)n5)CC4)cc3c2C(C)C)cc(C)n1 | 28800 nM | 16.4 nM | 124 nM |  | 
Cc1cc(-c2[nH]c3ccc(C4CCNCC4O)cc3c2C(C)C)cc(C)n1 (single isomer, unassigned) [Example 488A, 4-(2-(2,6-dimethylpyridin-4-yl)-3-isopropyl-1H-indol-5-yl)piperidin-3-ol] |  | 2.7 nM |  | 21 nM | IC50 (human TLR9; [4]): 240 nM
Cc1cc(-c2[nH]c3ccc(C4CCNCC4O)cc3c2C(C)C)cc(C)n1 (single isomer, unassigned) [Example 488B, 4-(2-(2,6-dimethylpyridin-4-yl)-3-isopropyl-1H-indol-5-yl)piperidin-3-ol] |  | 2.4 nM |  | 33.1 nM | IC50 (human TLR9; [4]): 308 nM
Cc1cc(-c2[nH]c3ccc(C4CCNCC4(F)F)cc3c2C(C)C)cc(C)n1 (single isomer, unassigned) [Example 489A, 5-(3,3-difluoropiperidin-4-yl)-2-(2,6-dimethylpyridin-4-yl)-3-isopropyl-1H-indole] |  | 1.1 nM |  | 13.9 nM | IC50 (human TLR9; [4]): 849 nM
COCCC(=O)N1CCC(c2ccc3[nH]c(-c4cc(C)nc(C)c4)c(C(C)C)c3c2)CC1 [Example 118, 1-(4-(2-(2,6-dimethylpyridin-4-yl)-3-isopropyl-1H-indol-5-yl)piperidin-1-yl)-3-methoxypropan-1-one] | > 50000 nM |  | 79.8 nM |  | 
Cc1cc(-c2[nH]c3ccc(C4CCN(C(=O)CC5C(=O)N(C)C(=O)N5C)CC4)cc3c2C(C)C)cc(C)n1 (centres unmarked) [Example 122, 5-(2-(4-(2-(2,6-dimethylpyridin-4-yl)-3-isopropyl-1H-indol-5-yl)piperidin-1-yl)-2-oxoethyl)-1,3-dimethylimidazolidine-2,4-dione] |  | 6.7 nM | 44.4 nM |  | 
Cc1cc(-c2[nH]c3ccc(C4CCN(C(=O)CCn5ccc(C)n5)CC4)cc3c2C(C)C)cc(C)n1 [Example 143, 1-(4-(2-(2,6-dimethylpyridin-4-yl)-3-isopropyl-1H-indol-5-yl)piperidin-1-yl)-3-(3-methyl-1H-pyrazol-1-yl)propan-1-one] | 25000 nM |  | 172 nM |  | 
Cc1cc(-c2[nH]c3ccc(C4CCN(C(=O)[C@@]5(C)CCCN5)CC4)cc3c2C(C)C)cc(C)n1 [Example 192, (R)-(4-(2-(2,6-dimethylpyridin-4-yl)-3-isopropyl-1H-indol-5-yl)piperidin-1-yl)(2-methylpyrrolidin-2-yl)methanone] | 154 nM |  | 7.2 nM |  | 
Cc1cc(-c2[nH]c3ccc(C4CCN(C(=O)C[C@H]5CCCN5)CC4)cc3c2C(C)C)cc(C)n1 [Example 193, (R)-1-(4-(2-(2,6-dimethylpyridin-4-yl)-3-isopropyl-1H-indol-5-yl)piperidin-1-yl)-2-(pyrrolidin-2-yl)ethan-1-one] | 228 nM |  | 14.8 nM |  | 
COCCN(C)C(=O)CN1CCC(c2ccc3[nH]c(-c4cc(C)nc(C)c4)c(C(C)C)c3c2)CC1 [Example 254, 2-(4-(2-(2,6-dimethylpyridin-4-yl)-3-isopropyl-1H-indol-5-yl)piperidin-1-yl)-N-(2-methoxyethyl)-N-methylacetamide] |  | 9 nM |  | 17.6 nM | 
Cc1cc(-c2[nH]c3ccc(C4CCN(CC(=O)N(C)C5CCOCC5)CC4)cc3c2C(C)C)cc(C)n1 [Example 287, 2-(4-(2-(2,6-dimethylpyridin-4-yl)-3-isopropyl-1H-indol-5-yl)piperidin-1-yl)-N-methyl-N-(tetrahydro-2H-pyran-4-yl)acetamide] |  |  |  | 22 nM | IC50 (human TLR9; [4]): 328 nM
Cc1cc(-c2[nH]c3ccc(C4CCN(C(=O)CN5CCC(C)CC5)CC4)cc3c2C(C)C)cc(C)n1 [Example 376, 1-(4-(2-(2,6-dimethylpyridin-4-yl)-3-isopropyl-1H-indol-5-yl)piperidin-1-yl)-2-(4-methylpiperidin-1-yl)ethan-1-one] | 628 nM |  | 20.9 nM |  | 
COC(=O)c1c(-c2cc(C)nc(C)c2)[nH]c2ccc(C3CCNCC3)cc12 [Example 495, methyl 2-(2,6-dimethylpyridin-4-yl)-5-(piperidin-4-yl)-1H-indole-3-carboxylate] | 144 nM |  | 12500 nM |  | 
Cc1cc(-c2[nH]c3ccc(C4CCN(Cc5ncn(C)n5)CC4)cc3c2C(C)C)c(F)cn1 [Example 724, 2-(5-fluoro-2-methylpyridin-4-yl)-3-isopropyl-5-(1-((1-methyl-1H-1,2,4-triazol-3-yl)methyl)piperidin-4-yl)-1H-indole] |  | 13.8 nM | 9.6 nM |  | 
Cc1nccc(-c2[nH]c3ccc(C4CCN(Cc5cnc[nH]5)CC4)cc3c2C(C)C)c1N [Example 745, 4-(5-(1-((1H-imidazol-5-yl)methyl)piperidin-4-yl)-3-isopropyl-1H-indol-2-yl)-2-methylpyridin-3-amine] |  | 99.9 nM |  | 130 nM | 
Cc1cc(-c2[nH]c3cc(F)c(C4CCN(C5COC5)CC4)cc3c2C(C)C)cc(C)n1 [Example 834, 2-(2,6-dimethylpyridin-4-yl)-6-fluoro-3-isopropyl-5-(1-(oxetan-3-yl)piperidin-4-yl)-1H-indole] |  |  |  |  | IC50 (human TLR7; [6]): 4.4 nM; IC50 (human TLR8; [7]): 23.8 nM
CCN1CCC(N2CCC(c3ccc4[nH]c(-c5ccncc5)c(C)c4c3)CC2)CC1 [Example 841, 5-(1′-ethyl-[1,4′-bipiperidin]-4-yl)-3-methyl-2-(pyridin-4-yl)-1H-indole] |  |  |  |  | IC50 (human TLR9; [8]): 87 nM; IC50 (human TLR7; [6]): 492 nM
Cc1c(-c2ccncc2)[nH]c2ccc(C3CCN(C4CCN(C)CC4)CC3)cc12 [Example 842, 3-methyl-5-(1′-methyl-[1,4′-bipiperidin]-4-yl)-2-(pyridin-4-yl)-1H-indole] |  |  |  |  | IC50 (human TLR9; [8]): 93 nM; IC50 (human TLR7; [6]): 388 nM
Cc1cc(-c2[nH]c3ccc(C4CCN(c5cccnc5)CC4)cc3c2C(C)C)ccn1 [Example 847, 3-isopropyl-2-(2-methylpyridin-4-yl)-5-(1-(pyridin-3-yl)piperidin-4-yl)-1H-indole] |  |  |  |  | IC50 (human TLR7; [6]): 61.9 nM; IC50 (human TLR8; [7]): 206 nM

Now from value to molecule, other results behind:

IC50 (human TLR9; [1]) | IC50 (human TLR7; [2]) | IC50 (human TLR8; [3]) | IC50 (human TLR8; [5]) | Compound | other results
 | 9.3 nM |  | 52.4 nM | Cc1cc(-c2[nH]c3ccc(C4CCN(C(=O)C5CC(=O)N(C)C5)CC4)cc3c2C(C)C)cc(C)n1 (single isomer, unassigned) [Example 101, 4-(4-(2-(2,6-dimethylpyridin-4-yl)-3-isopropyl-1H-indol-5-yl)piperidine-1-carbonyl)-1-methylpyrrolidin-2-one] | IC50 (human TLR9; [4]): 36900 nM
 | 2.6 nM |  | 21.5 nM | Cc1cc(-c2[nH]c3ccc(C4CCN(C(=O)C5CCNC5)CC4)cc3c2C(C)C)cc(C)n1 (single isomer, unassigned) [Example 181, (4-(2-(2,6-dimethylpyridin-4-yl)-3-isopropyl-1H-indol-5-yl)piperidin-1-yl)(pyrrolidin-3-yl) methanone] | IC50 (human TLR9; [4]): 537 nM
 | 1.3 nM |  | 12 nM | Cc1cc(-c2[nH]c3ccc(C4CCN(C(=O)C5CCNC5)CC4)cc3c2C(C)C)cc(C)n1 (single isomer, unassigned) [Example 182, (4-(2-(2,6-dimethylpyridin-4-yl)-3-isopropyl-1H-indol-5-yl)piperidin-1-yl)(pyrrolidin-3-yl) methanone] | IC50 (human TLR9; [4]): 151 nM
 | 5.9 nM | 78.6 nM |  | Cc1cc(-c2[nH]c3ccc(C4CCN(C(=O)c5cccnc5)CC4)cc3c2C(C)C)cc(C)n1 [Example 113, (4-(2-(2,6-dimethylpyridin-4-yl)-3-isopropyl-1H-indol-5-yl)piperidin-1-yl)(pyridin-3-yl)methanone] | 
 | 7.6 nM | 108 nM |  | Cc1cc(-c2[nH]c3ccc(C4CCN(C(=O)c5ccc(C)n(C)c5=O)CC4)cc3c2C(C)C)cc(C)n1 [Example 138, 3-(4-(2-(2,6-dimethylpyridin-4-yl)-3-isopropyl-1H-indol-5-yl)piperidine-1-carbonyl)-1,6-dimethylpyridin-2(1H)-one] | 
 |  |  | 22.2 nM | Cc1cc(-c2[nH]c3ccc(C4CCN(C(=O)C5CCNC5)CC4)cc3c2C(C)C)cc(C)n1 (centres unmarked) [Example 186, (4-(2-(2,6-dimethylpyridin-4-yl)-3-isopropyl-1H-indol-5-yl)piperidin-1-yl)(pyrrolidin-3-yl) methanone] | IC50 (human TLR9; [4]): 516 nM
39900 nM |  | 327 nM |  | Cc1cc(-c2[nH]c3ccc(C4CCN(C(=O)C(C)C)CC4)cc3c2C(C)C)cc(C)n1 [Example 202, 1-(4-(2-(2,6-dimethylpyridin-4-yl)-3-isopropyl-1H-indol-5-yl)piperidin-1-yl)-2-methylpropan-1-one] | 
47400 nM |  | 90.4 nM |  | Cc1cc(-c2[nH]c3ccc(C4CCN(C(=O)C5(C)COC5)CC4)cc3c2C(C)C)cc(C)n1 [Example 207, (4-(2-(2,6-dimethylpyridin-4-yl)-3-isopropyl-1H-indol-5-yl)piperidin-1-yl)(3-methyloxetan-3-yl)methanone] | 
 | 79.3 nM | 102 nM |  | COCCC(=O)N1CCC(c2ccc3[nH]c(-c4ccnc(C)c4)c(C(C)C)c3c2)CC1 [Example 571, 1-(4-(3-isopropyl-2-(2-methylpyridin-4-yl)-1H-indol-5-yl)piperidin-1-yl)-3-methoxypropan-1-one] | 
> 50000 nM |  | 107 nM |  | Cc1cc(-c2[nH]c3ccc(C4CCN(C(=O)C5CC(=O)N(C)C5)CC4)cc3c2C(C)C)ccn1 (centres unmarked) [Example 618, 4-(4-(3-isopropyl-2-(2-methylpyridin-4-yl)-1H-indol-5-yl)piperidine-1-carbonyl)-1-methylpyrrolidin-2-one] | 
